From PMC5290327, “SC83288 is a clinical development candidate for the treatment of severe malaria” (Nature Communications, 2017)
Values after ≈ are worked out from the molar mass of the structure shown. Values joined by “and” are separate entries in the source; they are usually repeats but may differ in a detail not shown here. Equal entries are not always repeated.

How the values were obtained:
GAL2 (h) = target: T1, GAL2 (h) (Homo sapiens, UniProt O43603); assay: Radioligand binding
T1 construct: Cerep

b2 (h) = target: T2, b2 (h) (Homo sapiens, UniProt P07550); assay type: binding
T2 construct: Cerep (contract study)
T2 sequence (P07550 whole entry): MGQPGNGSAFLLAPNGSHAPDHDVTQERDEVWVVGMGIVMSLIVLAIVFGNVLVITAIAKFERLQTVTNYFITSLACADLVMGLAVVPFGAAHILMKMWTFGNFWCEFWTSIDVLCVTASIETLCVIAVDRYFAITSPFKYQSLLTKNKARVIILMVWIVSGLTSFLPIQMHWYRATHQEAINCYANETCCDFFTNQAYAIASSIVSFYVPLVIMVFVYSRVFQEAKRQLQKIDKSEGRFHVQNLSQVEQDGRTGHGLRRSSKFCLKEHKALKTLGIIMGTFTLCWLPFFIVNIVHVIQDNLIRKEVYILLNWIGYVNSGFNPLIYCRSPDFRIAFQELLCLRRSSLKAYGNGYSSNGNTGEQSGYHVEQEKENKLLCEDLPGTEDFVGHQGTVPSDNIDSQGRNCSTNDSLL

TP (h) (TXA2/PGH2) = target: T3, TP (h) (TXA2/PGH2) (Homo sapiens, UniProt P21731); assay: Radioligand binding
T3 construct: Cerep
T3 sequence (P21731 1-343): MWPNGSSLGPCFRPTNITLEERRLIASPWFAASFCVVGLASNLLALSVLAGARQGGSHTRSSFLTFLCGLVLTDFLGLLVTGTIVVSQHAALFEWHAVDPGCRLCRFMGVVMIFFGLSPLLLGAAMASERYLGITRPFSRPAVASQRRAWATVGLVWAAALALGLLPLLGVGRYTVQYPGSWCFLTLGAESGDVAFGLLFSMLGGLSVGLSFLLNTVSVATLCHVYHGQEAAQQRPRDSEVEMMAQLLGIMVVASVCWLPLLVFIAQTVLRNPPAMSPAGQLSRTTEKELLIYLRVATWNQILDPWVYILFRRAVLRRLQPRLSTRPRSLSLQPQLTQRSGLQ

NK2 (h) = target: T4, NK2 (h) (Homo sapiens, UniProt P21452); assay: Radioligand binding
T4 construct: Cerep

D2S (h) = target: T5, D2S (h) (Homo sapiens, UniProt P14416); assay: Radioligand binding
T5 construct: Cerep
T5 sequence (P14416 1-414 isoform P14416-2): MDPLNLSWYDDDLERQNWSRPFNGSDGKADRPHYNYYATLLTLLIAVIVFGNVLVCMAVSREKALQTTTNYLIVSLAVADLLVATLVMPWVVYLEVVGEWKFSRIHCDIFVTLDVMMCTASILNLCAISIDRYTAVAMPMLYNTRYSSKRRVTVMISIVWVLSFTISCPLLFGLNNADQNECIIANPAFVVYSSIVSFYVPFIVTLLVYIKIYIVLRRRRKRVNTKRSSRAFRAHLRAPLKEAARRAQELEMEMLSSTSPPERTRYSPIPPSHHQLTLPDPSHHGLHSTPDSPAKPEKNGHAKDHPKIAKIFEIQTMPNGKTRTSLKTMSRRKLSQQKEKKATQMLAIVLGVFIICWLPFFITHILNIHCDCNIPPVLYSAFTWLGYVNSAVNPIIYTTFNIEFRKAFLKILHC

M1 (h) = target: T6, M1 (h) (Homo sapiens, UniProt P11229); assay type: binding
T6 construct: Cerep
T6 sequence (P11229 whole entry): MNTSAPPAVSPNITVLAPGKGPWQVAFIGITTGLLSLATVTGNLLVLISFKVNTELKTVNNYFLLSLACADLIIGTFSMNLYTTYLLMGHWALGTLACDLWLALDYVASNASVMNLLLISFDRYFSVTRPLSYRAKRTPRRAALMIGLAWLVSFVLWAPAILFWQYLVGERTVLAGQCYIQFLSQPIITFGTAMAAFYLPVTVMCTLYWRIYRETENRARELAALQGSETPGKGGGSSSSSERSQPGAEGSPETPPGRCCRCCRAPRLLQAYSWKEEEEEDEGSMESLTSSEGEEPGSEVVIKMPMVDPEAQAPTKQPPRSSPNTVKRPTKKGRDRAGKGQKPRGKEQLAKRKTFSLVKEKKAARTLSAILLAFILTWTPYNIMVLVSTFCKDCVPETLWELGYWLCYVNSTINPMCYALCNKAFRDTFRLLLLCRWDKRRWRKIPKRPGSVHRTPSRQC

Y2 (h) = target: T7, Y2 (h) (Homo sapiens, UniProt P49146); assay: Radioligand binding
T7 construct: Cerep
T7 sequence (P49146 whole entry): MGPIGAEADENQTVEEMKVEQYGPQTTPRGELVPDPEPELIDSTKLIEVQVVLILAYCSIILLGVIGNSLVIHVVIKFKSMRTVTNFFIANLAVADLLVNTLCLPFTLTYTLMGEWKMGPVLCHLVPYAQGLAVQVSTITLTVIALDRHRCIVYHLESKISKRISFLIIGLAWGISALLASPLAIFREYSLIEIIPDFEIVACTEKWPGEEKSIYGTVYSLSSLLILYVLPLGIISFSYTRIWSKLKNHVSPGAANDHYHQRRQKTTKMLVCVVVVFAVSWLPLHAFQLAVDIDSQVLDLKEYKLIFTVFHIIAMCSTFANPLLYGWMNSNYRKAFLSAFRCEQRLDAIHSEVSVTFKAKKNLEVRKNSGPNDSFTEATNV

CYP2C9 = CYP2C9 (Homo sapiens, UniProt P11712); assay: CYP inhibition, human liver microsomes; settings: CYP2C9, tolbutamide to OH-tolbutamide, 10 µM
Chain of CYP2C9 (P11712 whole entry): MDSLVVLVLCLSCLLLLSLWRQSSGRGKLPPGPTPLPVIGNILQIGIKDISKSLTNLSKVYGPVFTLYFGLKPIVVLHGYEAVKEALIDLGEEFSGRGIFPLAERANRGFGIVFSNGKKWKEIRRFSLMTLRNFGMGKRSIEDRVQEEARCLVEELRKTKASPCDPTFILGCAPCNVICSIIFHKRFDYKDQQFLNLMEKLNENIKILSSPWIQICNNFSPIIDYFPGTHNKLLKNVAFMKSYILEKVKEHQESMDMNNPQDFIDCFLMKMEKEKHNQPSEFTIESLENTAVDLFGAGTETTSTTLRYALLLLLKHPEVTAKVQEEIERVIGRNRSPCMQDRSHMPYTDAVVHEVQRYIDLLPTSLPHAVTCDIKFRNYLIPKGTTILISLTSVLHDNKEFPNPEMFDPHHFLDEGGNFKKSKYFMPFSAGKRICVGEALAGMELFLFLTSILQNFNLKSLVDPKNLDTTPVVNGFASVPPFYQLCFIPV

[1] = test system: early stage (I–III) gametocytes, NF54^Pfs16; assay: Gametocytocidal activity, luciferase assay; assay type: cell-based; settings: Plasmodium falciparum, 72 h
Procedure: Activity against early- and late-stage gametocytes was determined in miniaturized 384-wells plate assays as previously described. Briefly, gametocytes from a recombinant line NF54^Pfs16, expressing a green fluorescent protein–luciferase reporter gene under the gametocyte-specific Pfs16 promoter were induced and purified as previously described; gametocytes were then treated either on day 1 (stage I gametocytes) or day 8 of gametocytogenesis (stage IV gametocytes) with serially diluted SC81458 or SC83288 to achieve a final top concentration of 40 μM (0.4% dimethylsulphoxide(DMSO)). After 72 h of incubation, gametocyte inhibition was assessed by luminometry, after addition of Steadylite plus luciferase detection kit (PerkinElmer) to the plate wells[58][59].

A3 (h) = target: T8, A3 (h) (Homo sapiens, UniProt P0DMS8); assay: Radioligand binding
T8 construct: Cerep (contract study)
T8 sequence (P0DMS8 whole entry): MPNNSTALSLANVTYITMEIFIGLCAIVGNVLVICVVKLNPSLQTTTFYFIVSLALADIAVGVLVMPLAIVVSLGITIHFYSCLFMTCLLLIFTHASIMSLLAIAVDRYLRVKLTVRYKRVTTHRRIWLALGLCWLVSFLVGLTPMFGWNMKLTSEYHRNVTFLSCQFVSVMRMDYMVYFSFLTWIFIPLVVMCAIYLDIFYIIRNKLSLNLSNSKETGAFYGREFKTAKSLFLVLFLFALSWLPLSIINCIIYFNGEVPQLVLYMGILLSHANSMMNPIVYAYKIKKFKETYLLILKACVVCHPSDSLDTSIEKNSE

NTS1 (NT1) (h) = target: T9, NTS1 (NT1) (h) (Homo sapiens, UniProt P30989); assay: Radioligand binding
T9 construct: Cerep
T9 sequence (P30989 whole entry): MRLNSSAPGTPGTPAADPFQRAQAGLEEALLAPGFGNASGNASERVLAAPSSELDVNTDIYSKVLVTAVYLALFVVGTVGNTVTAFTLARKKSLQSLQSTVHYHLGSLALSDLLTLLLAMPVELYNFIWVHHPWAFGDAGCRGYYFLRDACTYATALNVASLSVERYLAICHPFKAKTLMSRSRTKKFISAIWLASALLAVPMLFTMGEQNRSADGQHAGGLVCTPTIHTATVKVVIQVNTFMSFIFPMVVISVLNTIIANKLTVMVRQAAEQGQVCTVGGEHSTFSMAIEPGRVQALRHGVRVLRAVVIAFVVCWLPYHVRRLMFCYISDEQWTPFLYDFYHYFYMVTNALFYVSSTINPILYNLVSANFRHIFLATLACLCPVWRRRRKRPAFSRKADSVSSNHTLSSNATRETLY

Cl- channel (GABA-gated) = assay: Radioligand binding
k (KOP) = target: T10, k (KOP) (Rattus norvegicus, UniProt P34975); assay: Radioligand binding
T10 construct: Cerep
T10 sequence (P34975 whole entry): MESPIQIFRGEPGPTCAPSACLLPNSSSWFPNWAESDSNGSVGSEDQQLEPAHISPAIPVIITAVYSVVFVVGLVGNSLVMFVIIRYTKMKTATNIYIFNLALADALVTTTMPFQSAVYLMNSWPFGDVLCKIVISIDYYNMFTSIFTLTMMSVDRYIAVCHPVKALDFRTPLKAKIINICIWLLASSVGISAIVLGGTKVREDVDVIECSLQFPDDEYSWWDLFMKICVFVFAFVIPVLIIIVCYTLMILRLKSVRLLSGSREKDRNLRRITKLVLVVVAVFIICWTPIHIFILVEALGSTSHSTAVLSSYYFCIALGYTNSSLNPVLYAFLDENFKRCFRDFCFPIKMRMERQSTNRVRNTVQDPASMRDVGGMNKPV

CCK1 (CCKA) (h) = target: T11, CCK1 (CCKA) (h) (Homo sapiens, UniProt P32238); assay: Radioligand binding
T11 construct: Cerep (contract study)

[2] = test system: P. falciparum strain Thai19; assay: Growth inhibition assay; assay type: cell-based; settings: Plasmodium falciparum
[3] = test system: P. falciparum strains 3D7 and W2; assay: Efficacy in the Pf/NSG mouse model; assay type: in vivo, Plasmodium falciparum; settings: for reduction of parasite burden within the first 24 h: 10.0 mg kg^−1 per day i.p.; for recrudescence of the infection: 3 weeks survey, exception 3D7-infected mice treated with 2.5 mg kg^−1 of SC81458; for In vivo PCT99.9%: i.p. once per day 4 days
Balb C 3T3 cells = assay: Cytotoxicity; settings: 50 μM
D1 (h) = target: T12, D1 (h) (Homo sapiens, UniProt P21728); assay: Radioligand binding
T12 construct: Cerep
T12 sequence (P21728 whole entry): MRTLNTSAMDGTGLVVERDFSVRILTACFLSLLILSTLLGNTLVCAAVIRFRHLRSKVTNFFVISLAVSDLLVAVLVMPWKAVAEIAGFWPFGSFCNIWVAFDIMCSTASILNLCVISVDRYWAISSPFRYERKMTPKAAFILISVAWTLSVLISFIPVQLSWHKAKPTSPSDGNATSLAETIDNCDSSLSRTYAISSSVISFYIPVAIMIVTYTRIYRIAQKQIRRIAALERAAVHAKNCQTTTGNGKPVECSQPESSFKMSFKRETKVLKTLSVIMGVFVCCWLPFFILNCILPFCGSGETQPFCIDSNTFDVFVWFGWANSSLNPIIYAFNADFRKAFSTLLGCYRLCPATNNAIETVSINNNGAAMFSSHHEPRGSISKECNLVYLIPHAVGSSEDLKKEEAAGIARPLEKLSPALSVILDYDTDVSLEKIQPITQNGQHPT

dopamine transporter (h) = target: T13, dopamine transporter (h) (Homo sapiens, UniProt Q01959); assay: Radioligand binding
T13 construct: Cerep (contract screening)
T13 sequence (Q01959 whole entry): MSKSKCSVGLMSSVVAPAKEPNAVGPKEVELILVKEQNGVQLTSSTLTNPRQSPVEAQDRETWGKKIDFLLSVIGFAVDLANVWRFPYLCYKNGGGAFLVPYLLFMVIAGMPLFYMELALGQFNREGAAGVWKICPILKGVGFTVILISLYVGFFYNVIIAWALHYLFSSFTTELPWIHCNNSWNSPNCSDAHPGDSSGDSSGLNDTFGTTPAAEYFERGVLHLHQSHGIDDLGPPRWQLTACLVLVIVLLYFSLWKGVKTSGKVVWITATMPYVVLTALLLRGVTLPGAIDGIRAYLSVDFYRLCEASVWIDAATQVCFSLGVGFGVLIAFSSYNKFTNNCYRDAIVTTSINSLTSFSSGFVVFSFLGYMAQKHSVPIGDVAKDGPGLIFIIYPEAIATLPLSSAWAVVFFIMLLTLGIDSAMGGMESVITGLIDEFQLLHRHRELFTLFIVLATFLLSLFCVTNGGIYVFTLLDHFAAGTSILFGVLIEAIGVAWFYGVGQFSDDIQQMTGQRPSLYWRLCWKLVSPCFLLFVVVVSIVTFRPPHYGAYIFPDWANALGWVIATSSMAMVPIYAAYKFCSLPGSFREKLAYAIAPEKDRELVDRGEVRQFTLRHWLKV

[4] = test system: synchronized Dd2 rings, trophozoites, schizonts; assay: Stage-specific activity, 6 h exposure, [3H] hypoxanthine; assay type: cell-based; settings: Plasmodium falciparum, DD2, 6 h
NOP (ORL1) (h) = target: T14, NOP (ORL1) (h) (Homo sapiens, UniProt P41146); assay: Radioligand binding
T14 construct: Cerep
T14 sequence (P41146 whole entry): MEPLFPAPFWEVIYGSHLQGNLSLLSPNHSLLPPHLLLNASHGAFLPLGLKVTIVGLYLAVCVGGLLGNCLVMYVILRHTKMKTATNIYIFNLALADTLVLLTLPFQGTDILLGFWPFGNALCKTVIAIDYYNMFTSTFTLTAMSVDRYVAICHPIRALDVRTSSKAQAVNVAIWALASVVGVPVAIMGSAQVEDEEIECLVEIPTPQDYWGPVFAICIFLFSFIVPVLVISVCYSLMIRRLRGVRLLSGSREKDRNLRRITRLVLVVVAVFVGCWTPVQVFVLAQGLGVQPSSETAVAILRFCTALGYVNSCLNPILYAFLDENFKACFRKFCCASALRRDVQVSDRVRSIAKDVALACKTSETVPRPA

5-HT3 (h) = target: T15, 5-HT3 (h) (Homo sapiens, UniProt P46098); assay: Radioligand binding
T15 construct: Cerep (contract screening)

Solubility in water = settings: water
[5] = test system: Dd2 P. falciparum parasites; assay: In vitro parasite reduction ratio assay (Sanz protocol); assay type: cell-based, Plasmodium falciparum; settings: for In vitro PCT99.9% / In vitro lag phase: 10 times IC50, Dd2; for parasites killed within the first 48 h of treatment: in vitro assay and NSG mouse model
P. falciparum strain 7G8 = assay: microbe, parasite or virus in culture; assay type: cell-based; settings: Plasmodium falciparum
[6] = Stability in cultured blood cell cultures; assay type: in vitro ADME; settings: 2 μM, at least 6 h, 37 °C
Procedure: An enriched young trophozoite-stage culture of P. falciparum Dd2 was obtain by magnetic purification and allowed to recover for 1 h at 37 °C in RPMI 1640 medium (Life Technologies) enriched with 1% hypoxanthine (C.C.Pro GmbH) and […] (Life Technologies). The experiment was performed in a total volume of 300 μl, at a haematocrit of 50%, in presence or absence of 2 μM of SC81458 or SC83288, for 6 h at 37 °C under shaking conditions. Each sample was subsequently treated with 1.2 ml of ice-cold acetonitrile, incubated on ice for 10 min and centrifuged for 15 min at 6,000g at 4 °C. Supernatants were stored at −80 °C until mass spectrometric measurement.

[7] = test system: drug-resistant P. falciparum lab strains other than Dd2; assay: Growth inhibition assay; assay type: cell-based; settings: Plasmodium falciparum

SMILES	Inhibition of control specific binding (GAL2 (h)) [%]	Inhibition of control specific binding (b2 (h)) [%]	Inhibition of control specific binding (TP (h) (TXA2/PGH2)) [%]	Inhibition of control specific binding (NK2 (h)) [%]	Inhibition of control specific binding (D2S (h)) [%]	Inhibition of control specific binding (M1 (h)) [%]	Inhibition of control specific binding (Y2 (h)) [%]	Remaining enzyme activity (CYP2C9) [%]	IC50 [1] [nM]	Inhibition of control specific binding (A3 (h)) [%]	Inhibition of control specific binding (NTS1 (NT1) (h)) [%]	Inhibition of control specific binding (Cl- channel (GABA-gated)) [%]	Inhibition of control specific binding (k (KOP)) [%]	Inhibition of control specific binding (CCK1 (CCKA) (h)) [%]	IC50 [2] [nM]	reduction of parasite burden within the first 24 h [3] [%]	recrudescence of the infection [3]	In vivo PCT99.9% ([3]; humanized NSG mouse) [h]	in vitro propagation / cytotoxicity (Balb C 3T3 cells)	Inhibition of control specific binding (D1 (h)) [%]	further results
CCCCN1CCN(C(=N)c2cccc(NC(=O)Nc3ccc(S(=O)(=O)NCc4ccc(S(N)(=O)=O)cc4)cc3)c2)CC1 [SC81458, 4-(3-(3-((4-butylpiperazin-1-yl)(imino)methyl)phenyl)ureido)-N-(4-sulfamoylbenzyl) benzenesulfonamide]	-15	6	-10	51	15	36	-20	104	76 ± 6	0	1	-28	43	0	7 ± 1	~97	no recrudescence	<48	did not affect	51	Inhibition of control specific binding (dopamine transporter (h)): 79%; IC50 ([4]; ring stages): 5000 ± 1000 nM; IC50 ([4]; schizonts): 70 ± 10 nM; IC50 ([4]; trophozoites): 37 ± 3 nM; Inhibition of control specific binding (NOP (ORL1) (h)): 2%; Inhibition of control specific binding (5-HT3 (h)): 1%; solubility (Solubility in water): 890 µg/mL (≈ 1420 µM); In vitro PCT99.9% [5]: 37±4 h and 37±4 (4) h; In vitro lag phase [5]: <5 h; parasites killed within the first 48 h of treatment [5]: ≥ 99.9%; IC50 (P. falciparum strain 7G8): 18 ± 5 nM; stability in human red blood cells and P. falciparum cultures [6]: stable; IC50 [7]: < 20 nM
COC(=O)N1CCN(C(=N)c2cccc(NC(=O)Nc3ccc(S(=O)(=O)NCc4ccc(S(N)(=O)=O)cc4)cc3)c2)CC1 [SC83288, methyl 4-(imino(3-(3-(4-(N-(4-sulfamoylbenzyl)sulfamoyl)phenyl)ureido)phenyl)methyl) piperazine-1-carboxylate]	4	27	-5	20	1	75	-4	103	199 ± 30	0	1	-37	36	-5	4 ± 1	~93	no recrudescence	48	did not affect	79	free-minimal parasiticidal concentration (MPC) ([3]; NSG mice): 200 nM; ED50 (free plasma concentration) ([3]; NSG mice, 2 days after commencement of treatment, sigmoidal model fit): 45 nM; ED90 (free plasma concentration) ([3]; NSG mice, sigmoidal model fit): 80 nM; reduction of parasitemia over a replicative cycle of 48 h ([3]; humanized NSG mouse): 99.9%; In vivo logPRR ([3]; humanized NSG mouse, no distinction between strains): 3.0; Inhibition of control specific binding (dopamine transporter (h)): 82%; IC50 ([4]; ring stages): 3000 ± 1000 nM; IC50 ([4]; schizonts): 110 ± 30 nM; IC50 ([4]; trophozoites): 40 ± 4 nM; Inhibition of control specific binding (NOP (ORL1) (h)): 10%; Inhibition of control specific binding (5-HT3 (h)): 17%; solubility (Solubility in water): 940 µg/mL (≈ 1490 µM); In vitro PCT99.9% [5]: 51±6 h and 51±6 (4) h; In vitro lag phase [5]: <5 h; parasites killed within the first 48 h of treatment [5]: ≥ 99.9%; IC50 (P. falciparum strain 7G8): 10 ± 1 nM; stability in human red blood cells and P. falciparum cultures [6]: stable; IC50 [7]: < 20 nM
